In US20100204203A1, “Chemical Compounds 637: Pyridopyrimidinediones as PDE4 Inhibitors” (priority 2007, published 2010):

molecular target: recombinant Human Phosphodiesterase B2 (PDE4B2) (Homo sapiens, UniProt Q07343); assay: Human Phosphodiesterase B2 Radiometric Assay (yttrium silicate SPA beads, [3H]cyclic AMP); format: biochemical; conditions: recombinant human PDE4B2, radiometric SPA assay, 8 nM [3H]cyclic AMP
How it was run: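 Read-out is scintillation proximity: yttrium silicate beads (with 18 mM ZnSO4, added to stop the reaction) bind 5′AMP formed from 8 nM [3H]cAMP over 20 min. Beforehand, compound and 0.1 mg/mL enzyme were preincubated 30 min at 30 °C in pH 7.5 HEPES buffer with MgCl2, EGTA and Brij 35; pIC50 values were curve-fitted.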

recombinant Human Phosphodiesterase B2 (PDE4B2), sequence (Q07343 1-564 isoform Q07343-2): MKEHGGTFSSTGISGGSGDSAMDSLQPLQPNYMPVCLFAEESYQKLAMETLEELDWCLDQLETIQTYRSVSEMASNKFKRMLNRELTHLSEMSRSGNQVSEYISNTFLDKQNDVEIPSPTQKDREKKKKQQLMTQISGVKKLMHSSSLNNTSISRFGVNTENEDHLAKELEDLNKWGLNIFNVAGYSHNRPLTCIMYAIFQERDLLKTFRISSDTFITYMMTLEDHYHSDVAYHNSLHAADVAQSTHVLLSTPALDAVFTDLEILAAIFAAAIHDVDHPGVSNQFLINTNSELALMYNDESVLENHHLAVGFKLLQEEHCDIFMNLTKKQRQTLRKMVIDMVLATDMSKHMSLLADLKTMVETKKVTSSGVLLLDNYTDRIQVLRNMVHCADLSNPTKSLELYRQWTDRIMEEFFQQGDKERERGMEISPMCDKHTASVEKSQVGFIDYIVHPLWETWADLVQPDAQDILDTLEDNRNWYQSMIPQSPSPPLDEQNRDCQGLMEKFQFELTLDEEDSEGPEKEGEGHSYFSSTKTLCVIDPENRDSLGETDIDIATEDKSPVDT

| Compound | PDE4B2 pIC50 |
| --- | --- |
| CN(C)C1(C(=O)NC2CCC(n3c(=O)c4cc(F)cnc4n(-c4cccc(-c5ccc(CN6CCC(CO)CC6)cc5)c4)c3=O)CC2)CC1 (stereo not drawn) [Example 128, 1-(dimethylamino)-N-{4-[6-fluoro-1-(4′-{[4-(hydroxymethyl)piperidin-1-yl]methyl}biphenyl-3-yl)-2,4-dioxo-1,4-dihydropyrido[2,3-d]pyrimidin-3(2H)-yl]cyclohexyl}cyclopropane-carboxamide] | 9.8 |

same assay, conditions: recombinant human PDE4B2, radiometric SPA assay, 8 nM [3H]cyclic AMP; read-out: PDE4B2 pIC50 (converted)

| Compound | IC50 |
| --- | --- |
| O=C(N[C@H]1CC[C@@H](n2c(=O)c3cc(F)cnc3n(-c3cccc(-c4ccc(CN5CCN(CCO)CC5)cc4)c3)c2=O)CC1)c1cn2c(n1)CCCC2 [Example 120, N-{cis-4-[6-fluoro-1-(4′-{[4-(2-hydroxyethyl)piperazin-1-yl]methyl}biphenyl-3-yl)-2,4-dioxo-1,4-dihydropyrido[2,3-d]pyrimidin-3(2H)-yl]cyclohexyl}-5,6,7,8-tetrahydroimidazo[1,2-a]pyridine-2-carboxamide] | 31.6 pM |
| CC(C)CCNCc1ccc(-c2cccc(-n3c(=O)n([C@H]4CC[C@@H](NC(=O)c5cn6c(n5)CCCC6)CC4)c(=O)c4cc(F)cnc43)c2)cc1 [Example 122, N-{cis-4-[6-fluoro-1-(4′-{[(3-methylbutyl)amino]methyl}biphenyl-3-yl)-2,4-dioxo-1,4-dihydropyrido[2,3-d]pyrimidin-3(2H)-yl]cyclohexyl}-5,6,7,8-tetrahydroimidazo[1,2-a]pyridine-2-carboxamide] | 50.1 pM |
| CCOCCNCc1ccc(-c2cccc(-n3c(=O)n([C@H]4CC[C@@H](NC(=O)c5cn6c(n5)CCCC6)CC4)c(=O)c4cc(F)cnc43)c2)cc1 [Example 123, N-{cis-4-[1-(4′-{[(2-ethoxyethyl)amino]methyl}biphenyl-3-yl)-6-fluoro-2,4-dioxo-1,4-dihydropyrido[2,3-d]pyrimidin-3(2H)-yl]cyclohexyl}-5,6,7,8-tetrahydroimidazo[1,2-a]pyridine-2-carboxamide] | 39.8 pM |
| Cc1cc(C(=O)N[C@H]2CC[C@@H](n3c(=O)c4cc(F)cnc4n(-c4cccc(-c5ccc(CN(C)C(C)(C)C)cc5)c4)c3=O)CC2)nn1C [Example 131, N-{cis-4-[1-(4′-{[tert-butyl(methyl)amino]methyl}biphenyl-3-yl)-6-fluoro-2,4-dioxo-1,4-dihydropyrido[2,3-d]pyrimidin-3(2H)-yl]cyclohexyl}-1,5-dimethyl-1H-pyrazole-3-carboxamide] | 126 pM |
| CCCCN(C)Cc1ccc(-c2cccc(-n3c(=O)n([C@H]4CC[C@@H](NC(=O)c5cn6c(n5)CCCC6)CC4)c(=O)c4cc(F)cnc43)c2)cc1 [Example 132, N-{cis-4-[1-(4′-{[butyl(methyl)amino]methyl}biphenyl-3-yl)-6-fluoro-2,4-dioxo-1,4-dihydropyrido[2,3-d]pyrimidin-3(2H)-yl]cyclohexyl}-5,6,7,8-tetrahydroimidazo[1,2-a]pyridine-2-carboxamide] | 25.1 pM |
| CN(C)CCN(C)Cc1ccc(-c2cccc(-n3c(=O)n([C@H]4CC[C@@H](NC(=O)c5cn6c(n5)CCCC6)CC4)c(=O)c4cc(F)cnc43)c2)cc1 [Example 133, N-{cis-4-[1-(4′-{[[2-(dimethylamino)ethyl](methyl)amino]methyl}biphenyl-3-yl)-6-fluoro-2,4-dioxo-1,4-dihydropyrido[2,3-d]pyrimidin-3(2H)-yl]cyclohexyl}-5,6,7,8-tetrahydroimidazo[1,2-a]pyridine-2-carboxamide] | 10 pM |
| CC(C)N1CCN(Cc2ccc(-c3cccc(-n4c(=O)n([C@H]5CC[C@@H](NC(=O)c6cn7c(n6)CCCC7)CC5)c(=O)c5cc(F)cnc54)c3)cc2)CC1 [Example 134, N-{cis-4-[6-fluoro-1-{4′-[(4-isopropylpiperazin-1-yl)methyl]biphenyl-3-yl}-2,4-dioxo-1,4-dihydropyrido[2,3-d]pyrimidin-3(2H)-yl]cyclohexyl}-5,6,7,8-tetrahydroimidazo[1,2-a]pyridine-2-carboxamide] | 7.94 pM |

Continued, values first:

| IC50 | Compound |
| --- | --- |
| 158 pM | CC(C)N(CCO)Cc1ccc(-c2cccc(-n3c(=O)n([C@H]4CC[C@@H](NC(=O)c5cn6c(n5)CCCC6)CC4)c(=O)c4cc(F)cnc43)c2)cc1 [Example 121, N-{cis-4-[6-fluoro-1-(4′-{[(2-hydroxyethyl)(isopropyl)amino]methyl}biphenyl-3-yl)-2,4-dioxo-1,4-dihydropyrido[2,3-d]pyrimidin-3(2H)-yl]cyclohexyl}-5,6,7,8-tetrahydroimidazo[1,2-a]pyridine-2-carboxamide] |
| 6.31 pM | CN(C)C1(C(=O)N[C@H]2CC[C@@H](n3c(=O)c4cc(F)cnc4n(-c4cccc(-c5ccc(CN6CCOCC6)cc5)c4)c3=O)CC2)CC1 [Example 124, 1-(dimethylamino)-N-{cis-4-[6-fluoro-1-[4′-(morpholin-4-ylmethyl)biphenyl-3-yl]-2,4-dioxo-1,4-dihydropyrido[2,3-d]pyrimidin-3(2H)-yl]cyclohexyl}cyclopropane-carboxamide] |
| 158 pM | CN(C)C1(C(=O)N[C@H]2CC[C@@H](n3c(=O)c4cc(F)cnc4n(-c4cccc(-c5ccc(CN6CCCCC6)cc5)c4)c3=O)CC2)CC1 [Example 125, 1-(dimethylamino)-N-{cis-4-[6-fluoro-2,4-dioxo-1-[4′-(piperidin-1-ylmethyl)biphenyl-3-yl]-1,4-dihydropyrido[2,3-d]pyrimidin-3(2H)-yl]cyclohexyl}cyclopropane-carboxamide] |
| 63.1 pM | CC(C)N(CCO)Cc1ccc(-c2cccc(-n3c(=O)n([C@H]4CC[C@@H](NC(=O)C5(N(C)C)CC5)CC4)c(=O)c4cc(F)cnc43)c2)cc1 [Example 126, 1-(dimethylamino)-N-{cis-4-[6-fluoro-1-(4′-{[(2-hydroxyethyl)(isopropyl)amino]methyl}biphenyl-3-yl)-2,4-dioxo-1,4-dihydropyrido[2,3-d]pyrimidin-3(2H)-yl]cyclohexyl}cyclopropane-carboxamide] |
| 200 pM | CCN(CC)Cc1ccc(-c2cccc(-n3c(=O)n([C@H]4CC[C@@H](NC(=O)C5(N(C)C)CC5)CC4)c(=O)c4cc(F)cnc43)c2)cc1 [Example 127, N-{cis-4-[1-{4′-[(diethylamino)methyl]biphenyl-3-yl}-6-fluoro-2,4-dioxo-1,4-dihydropyrido[2,3-d]pyrimidin-3(2H)-yl]cyclohexyl}-1-(dimethylamino)cyclopropanecarboxamide] |
| 39.8 pM | CC(C)N1CCN(Cc2ccc(-c3cccc(-n4c(=O)n([C@H]5CC[C@@H](NC(=O)C6(N(C)C)CC6)CC5)c(=O)c5cc(F)cnc54)c3)cc2)CC1 [Example 129, 1-(dimethylamino)-N-{cis-4-[6-fluoro-1-{4′-[(4-isopropylpiperazin-1-yl)methyl]biphenyl-3-yl}-2,4-dioxo-1,4-dihydropyrido[2,3-d]pyrimidin-3(2H)-yl]cyclohexyl}cyclopropanecarboxamide] |
| 25.1 pM | CCN1CCN(Cc2ccc(-c3cccc(-n4c(=O)n([C@H]5CC[C@@H](NC(=O)C6(N(C)C)CC6)CC5)c(=O)c5cc(F)cnc54)c3)cc2)CC1 [Example 130, 1-(dimethylamino)-N-{cis-4-[1-{4′-[(4-ethylpiperazin-1-yl)methyl]biphenyl-3-yl}-6-fluoro-2,4-dioxo-1,4-dihydropyrido[2,3-d]pyrimidin-3(2H)-yl]cyclohexyl}cyclopropane carboxamide] |
